Assay results reported in patent US20050175599A1, “Process for producing substance” (Kyowa Hakko Kogyo Co., Ltd., priority 2001, published 2005).

Columns and labels:
[1] = test system: transformant cell line NS0/LCA-CCR4 producing chimeric anti-CCR4 antibody; assay: Batch culture of antibody-producing cells in Q10-containing serum fraction-added medium (Example 4); assay type: cell-based, mouse; conditions: 100 μmol/L Q10 (added as SANOMIT), 4th day
Experimental: The batch culture was performed using transformant cell line NS0/LCA-CCR4 (FERM BP-7964) producing chimeric anti-CCR4 antibody as prepared in Reference Example 1. […]
The cumulative number of viable cells is shown as the total sum of the viable cell density multiplied by the time as elapsed. In the present Example, as the viable cell density was measured once, the cumulative number of viable cells was calculated by the following equation as a trapezoidal area formed by the change of the cell density with time related to the inoculated cell density and the measured cell density. Cumulative number of viable cells (cells/mL×days)=(inoculated cell density+measured cell density)×time as elapsed÷2
The specific antibody production rate and the relative specific antibody production rate were calculated respectively by the method described in Example 1.
(3) Quantitative Determination of an Antibody in a Culture Supernatant by IgG-ELISA
The concentration of chimeric anti-CCR4 antibody in the culture supernatant was measured as follows. […]

[2] = test system: transformant cell line 61-33γ (host YB2/0) producing a chimeric anti-GD3 antibody; assay: Batch culture of antibody-producing cells in Q10-containing serum-free medium (Example 1); assay type: cell-based, rat; conditions: Q10-added culture, 500 μM Q10 (added as SANOMIT), batch culture 6 days
Experimental: The following batch culture was performed with transformant cell line 61-33γ (FERM BP-7325, WO 01/29246) which was obtained by using hybridoma cell line YB2/0 derived from a rat myeloma cell line as a host cell and produces a chimeric anti-GD3 antibody. […]
From the start to the completion of culturing, the liquid culture was sampled once a day, to assay the viable cell density (cells/mL) and the antibody concentration (μg/mL) respectively. Further, the viable cell density was measured by a dye-exclusion method using 0.4% trypan blue solution.
The cumulative number of viable cells is shown as the total sum of the viable cell density multiplied by the time as elapsed. In the present Example, the viable cell density was measured once a day, and the cumulative number of viable cells was shown as value of the additive sum of the individual viable cell densities measured each time (cells/mL×days).
Additionally, the specific antibody production rate and the relative specific antibody production rate were calculated respectively by the following equations. […]

COC1=C(OC)C(=O)C(C/C=C(\C)CC/C=C(\C)CC/C=C(\C)CC/C=C(\C)CC/C=C(\C)CC/C=C(\C)CC/C=C(\C)CC/C=C(\C)CC/C=C(\C)CCC=C(C)C)=C(C)C1=O [Q10]
cumulative number of cells on the completion of culturing ([1]; Q10-free culture 1.59×10^6): 1.34×10^6 cells/mL×days | relative specific antibody production rate ([1]; Q10-free culture = 100%): 131.9% | cumulative number of cells on the completion of culturing ([2]; Q10-free culture 1.71×10^7): 1.51×10^7 cells/mL×days | relative specific antibody production rate ([2]; Q10-free culture = 100%): 166.3%
